From patent publication US11464802B2, “3-substituted piperidine compounds for Cbl-b inhibition, and use thereof” (Nurix Therapeutics, Inc., priority 2019, dated 2022)
Read-outs that look alike come from different tables or passages of the source.

How the values were obtained:
Cbl-b = Cbl-b (Homo sapiens (Human), UniProt Q13191); experiment: Cbl-b displacement assay (Cbl-b inhibition assay), TR-FRET probe displacement, Biological Example 1; format: binding
Description: Candidate compounds were evaluated for their ability to bind and inhibit Cbl-b, an E3 ubiquitin-protein ligase, as evidenced by their ability to displace a fluorophore-labeled probe (Example 46) bound to Cbl-b.
The ability of candidate compounds to displace a known inhibitor and thereby inhibit Cbl-b activity was measured by monitoring the interaction of Cbl-b with a fluorophore-labeled probe in the presence of the candidate compound. A truncated variant of Cbl-b (UniProt number Q13191; SEQ ID NO:1) containing an Avitag at its N-terminus was co-expressed with BirA biotin ligase and purified using a standard protocol (see Dou et al., Nature Structural and Molecular Biology 8: 982-987, 2013; Avidity LLC).
Fluorescently-labeled inhibitor probe was synthesized and tagged with BODIPY FL (Example 46). Cbl-b displacement assays were performed in a 384-well plate at room temperature in a 10 μL reaction volume by pre-incubating 0.5 nM Cbl-b or 0.125 nM Cbl-b (final concentration, indicated as “High” and “Low”, respectively) in an assay buffer containing 20 mM HEPES pH 7.5, 150 mM NaCl, 0.01% Triton X-100, 0.01% BSA, and 0.5 mM TCEP in the presence of a candidate compound in 1% DMSO (final concentration) for 1 hour. After incubation in the presence of the candidate compound, the plate was incubated for an additional 1 hour in the presence of an approximate EC40 binding saturation consisting of 150 nM fluorescently-labeled inhibitor probe and 2 nM Streptavidin-Terbium (Cisbio) (final concentrations). Following the 1 hour incubation, the plates were read for TR-FRET signal at 520/620 nM using an Envision plate reader (Perkin Elmer).

[1] = tested on: primary human total T-cells; experiment: Primary human total T-cell activation: IL-2 secretion, Biological Example 2; format: cell-based; conditions: 48 hours, fold change over baseline; for fold induction at 0.3 µM: inhibitor 0.3 μM; for fold induction at 1 µM: inhibitor 1 μM; for fold induction at 3 µM: inhibitor 3 μM
[2] = tested on: primary human total T-cells; experiment: Primary human total T-cell activation: CD25 surface staining, Biological Example 2; format: cell-based; conditions: 48 hours, fold change over baseline; for fold induction at 0.3 µM: inhibitor 0.3 μM; for fold induction at 1 µM: inhibitor 1 μM; for fold induction at 3 µM: inhibitor 3 μM
[3] = 0.5 nM Cbl-b final concentration (High), read-out: Cbl-b activity IC50 (High)
[4] = anti-CD3/anti-CD28 co-stimulation
[5] = anti-CD3/anti-CD28 co-stimulation, read-out: IL-2 secretion CD3/CD28 1 μM
[6] = anti-CD3 alone, read-out: IL-2 secretion CD3 1 μM
[7] = anti-CD3/anti-CD28 co-stimulation, read-out: CD25 staining CD3/CD28 1 μM
[8] = anti-CD3 alone, read-out: CD25 staining CD3 1 μM
[9] = 0.125 nM Cbl-b final concentration (Low), read-out: Cbl-b activity IC50 (Low)
[10] = Cbl-b concentration (High or Low) not given, read-out: IC50 values in the Cbl-b inhibition assay of Biological Example 1

Chain of Cbl-b (Q13191 36-427): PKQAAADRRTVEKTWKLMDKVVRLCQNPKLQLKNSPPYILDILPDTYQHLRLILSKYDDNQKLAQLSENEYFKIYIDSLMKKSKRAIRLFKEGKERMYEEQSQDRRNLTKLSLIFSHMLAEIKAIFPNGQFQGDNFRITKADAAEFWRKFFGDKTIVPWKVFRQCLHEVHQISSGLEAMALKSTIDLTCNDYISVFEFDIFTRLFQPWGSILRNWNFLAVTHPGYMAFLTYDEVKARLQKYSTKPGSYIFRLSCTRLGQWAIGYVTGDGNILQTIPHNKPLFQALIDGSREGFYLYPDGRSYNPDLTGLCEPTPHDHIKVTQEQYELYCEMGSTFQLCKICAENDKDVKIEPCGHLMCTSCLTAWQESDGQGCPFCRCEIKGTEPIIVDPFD

Row | SMILES | IC50 (Cbl-b; [3]) | fold induction at 0.3 µM [1, 4] | fold induction at 1 µM [1, 5] | fold induction at 1 µM [1, 6] | fold induction at 3 µM ([1]; anti-CD3 alone) | fold induction at 0.3 µM [2, 4] | fold induction at 1 µM [2, 7] | fold induction at 1 µM [2, 8] | fold induction at 3 µM ([2]; anti-CD3 alone) | IC50 (Cbl-b; [9]) | IC50 (Cbl-b; [10])
1 | Cn1cnnc1CC1(c2cccc(N3Cc4c(cc(CN5CCC(F)(F)[C@@]6(CCOC6)C5)cc4C(F)(F)F)C3=O)c2)COC1 [Compound 14, (S)-6-((10,10-difluoro-2-oxa-7-azaspiro[4.5]decan-7-yl)methyl)-2-(3-(3-((4-methyl-4H-1,2,4-triazol-3-yl)methyl)oxetan-3-yl)phenyl)-4-(trifluoromethyl)isoindolin-1-one] | 1 to 5 nM | < 10 | 11 to 15 | 0.34 to 0.66 | 0.34 to 0.66 | < 1.24 | < 1.24 | 1.05 to 1.14 | < 1.04 | – | –
2 | Cn1cnnc1CC1(c2cccc(N3Cc4c(cc(CN5CCC[C@H](C#N)C5)cc4C(F)(F)F)C3=O)c2)COC1 [Compound 18, (S)-1-((2-(3-(3-((4-methyl-4H-1,2,4-triazol-3-yl)methyl)oxetan-3-yl)phenyl)-3-oxo-7-(trifluoromethyl)isoindolin-5-yl)methyl)piperidine-3-carbonitrile] | – | < 10 | 11 to 15 | < 0.33 | 0.34 to 0.66 | 1.25 to 1.39 | 1.25 to 1.39 | > 1.14 | > 1.14 | 1 to 5 nM | –
3 | CCOc1cc(C2(Cc3nncn3C)COC2)cc(N2Cc3c(cc(CN4CCC[C@H](C)C4)nc3C3CC3)C2=O)n1 [Compound 40, 4-cyclopropyl-2-(6-ethoxy-4-{3-[(4-methyl-1,2,4-triazol-3-yl)methyl]oxetan-3-yl}pyridin-2-yl)-6-{[(3S)-3-methylpiperidin-1-yl]methyl}-3H-pyrrolo[3,4-c]pyridin-1-one] | – | > 15 | > 15 | > 0.66 | > 0.66 | > 1.39 | > 1.39 | > 1.14 | > 1.14 | < 1 nM | < 1 nM
4 | CCNc1cc(C2(Cc3nncn3C)COC2)cc(N2Cc3c(cc(CN4CCC(F)(F)[C@H](C)C4)nc3C3CC3)C2=O)n1 [Compound 42, (R)-4-cyclopropyl-6-((4,4-difluoro-3-methylpiperidin-1-yl)methyl)-2-(6-(ethylamino)-4-(3-((4-methyl-4H-1,2,4-triazol-3-yl)methyl)oxetan-3-yl)pyridin-2-yl)-2,3-dihydro-1H-pyrrolo[3,4-c]pyridin-1-one] | – | > 15 | > 15 | > 0.66 | > 0.66 | > 1.39 | > 1.39 | > 1.14 | > 1.14 | 1 to 5 nM | –
5 | C[C@@H]1C[C@H](C)CN(Cc2cc3c(c(C(F)(F)F)c2)CN(c2cccc(-c4c(-c5nncn5C)cnn4C)c2)C3=O)C1 [Compound 45, 6-((cis-3,5-dimethylpiperidin-1-yl)methyl)-2-(3-(1-methyl-4-(4-methyl-4H-1,2,4-triazol-3-yl)-1H-pyrazol-5-yl)phenyl)-4-(trifluoromethyl)isoindolin-1-one] | 1 to 5 nM | 11 to 15 | 11 to 15 | 0.34 to 0.66 | 0.34 to 0.66 | 1.25 to 1.39 | < 1.24 | < 1.04 | < 1.04 | – | 1 to 5 nM
